Measured values published in patent US4696920A, “Certain 2-substituted 1,3-propylidenediphosphonate derivatives, pharmaceutical compositions containing them and their use as antihypertensive agents” (priority 1984, dated 1987).
“Also recorded” adds a separate entry of the source.

Experiments:
[1] = tested on: drug receptor sites associated with calcium channels; conditions: known calcium antagonists; cited from earlier work
[2] = tested on: calcium channel binding site for [^3 H]-Nitrendipine (rat brain membranes); assay: [^3 H]-Nitrendipine binding to rat brain membranes; design: species or system rat (male Wistar); conditions: for Specifically bound [^3 H]-Nitrendipine % of control value: compound concentration 1.0 μM; for Specifically bound [^3 H]-Nitrendipine % of control value / Bound ^3 H at 1.0 μM / Bound ^3 H at 0.1 μM: Table 1a; for Bound ^3 H at 1.0 μM / Bound ^3 H at 0.1 μM: ratio of [^3 H]-Nitrendipine bound at 1.0 and 0.1 μM compound
Experimental: (§1) Diltiazem hydrochloride was a generous gift from Goedecke A. G.
Suitable dilutions were made in 50 mM Tris-HCl buffer (pH 7.4) containing 150 mM NaCl and 1 mM CaCl2. The ethanol concentration in the final assay never exceeded 0.1%.
(§2) The purity of the radioligand and of the various agents tested was monitored by thin layer chromatography on silica gel plates.
(§3) The following procedure was adapted from Bellemann et al (Proc. Nat. Acad. Sci. 80, 2356, 1983), and Gould et al (Proc. Nat. Acad. Sci. 79, 3656, 1982).
(§4) Adult male Wistar rats weighing 250-300 g were anesthetized with carbon dioxide prior to decapitation. The brain was removed then immersed in ice-cold 0.32M sucrose and washed 2-3 times with fresh solution. Cerebral cortex was minced and homogenized (Potter-Elvehjem homogenizer) in 10 volumes of ice-cold sucrose solution. The homogenate was centrifuged (4° C.) at 1000×g for 15 minutes. The resulting supernatant was then centrifuged at 90000×g (30 minutes) and the pellet was washed twice with 20 ml ice-cold 50 mM Tris-HCl pH 7.4.
(§5) The final pellet was resuspended in 50 mM Tris-HCl pH 7.4/150 mM NaCl/1 mM CaCl2 to give a protein concentration of 4 mg/ml.
(§6) The membrane suspension was kept on ice until used. Binding assays were performed in subdued light to prevent dihydropyridine breakdown. Membrane protein (400 μg/tube) was incubated in 50 mM Tris-HCl buffer (pH 7.4)/150 mM NaCl/1 mM CaCl2 with the indicated concentrations of radioligand and test compounds or known calcium antagonists, in a total volume of 2 ml. After the indicated time intervals, the reaction was terminated by rapid filtration through Whatman GF/B glass fiber filters (2.4 cm diameter) on a Millipore filter holder. The assay tube was rinsed with 2 ml ice-cold 50 mM Tris-HCl pH (7.4) and the precipitate was further washed with 2×5 ml of the same buffer.
(§7) Filters were dried under a heat lamp and were extracted with 10 ml of liquid scintillation cocktail (Toluene/Triton X-100, 2/1 containing 4 g Omnifluor/1) prior to tritium determination at 48% counting efficiency.
(§8) Assays were performed in duplicate or triplicate.
(§9) Data were expressed as percent specific [^3 H]-Nitrendipine binding relative to the established control value.
(§10) Compound activity in the [^3 H]-Nitrendipine binding assay was evaluated by using the following criteria:
(§11) 1. [^3 H]-Nitrendipine binding at 1.0 μM compound final concentration was either below 95% or above 105% of the control value determined in absence of compound.
2. […] This ratio is indicative of a dose response relationship within the compound concentration range tested, when the value differs appreciably from 1.0.

[3] = tested on: rat trachea contraction induced by KCl depolarization; assay: KCl-induced rat trachea contraction; design: species or system rat (male SHR, Okamoto-Aoki); conditions: for activity at 1 µM: Rattus norvegicus, 40 min, read-out: Contraction (% max.)
Experimental: Spontaneously hypertensive male rats (SHR) Okamoto-Aoki Strain, weighing 300-400 g were used in this study. They were killed by bleeding after Pentobarbital anesthesia (Nembutal, Abbott Co, 40 mg/kg). Their entire trachea was quickly removed and dissected free of fat and connective tissue in Krebs-Ringer solution. A strip (4 mm×40 mm), obtained by spirally cutting the trachea, was immediately suspended in a 50 ml Krebs-Ringer solution and continuously bubbled with a O2 /CO2 (95/5) mixture. Bath temperature was maintained at 37±1° C. The composition (mM) of the Krebs-Ringer solution modified by Nghiem, was as follows: NaCl, (118.0); KCl, (4.7); CaCl2, (2.5); MgCl2, (1.18); NaHCO3, (12.5); KH2 P04, (1.18); glucose, (5.5) in bidistilled water (pH 7.4). Each strip was equilibrated under initial tension (1.5-2 g) for 1-2 hours and the bath solution changed every 30 min. A contractile or relaxant response was isometrically measured with a force-displacement transducer (Ugo-Basile) and recorded on a polygraph (Beckman).
After equilibration, KCl was added to the bath at 65 mM final concentration. This concentration produced maximum trachea contraction. Under these conditions, a plateau phase showing a tonic sustained contraction was reached within 30 minutes. Drugs were added 30 minutes after the plateau phase has been reached (final concentration=1.0 μM). […] Recordings of the residual trachea contraction were made 40 minutes after drug addition to the bathing fluid. The initial KCl induced contraction was taken as the maximum KCl response (100%). Results were expressed as % of maximal contraction. Nifedipine, Prenylamine, Flunarizine and Diltiazem were used as reference standards to validate this assay.
All 1,3-diphosphonates and drugs were dissolved in saline (0.9% NaCl) except when water insoluble, then the compounds were dissolved in 2% ethanol. The final concentration of ethanol used has been shown not to interfere with the assay.
Results are expressed as mean values±SEM, the Student's t-test was used for statistical analysis.

[4] = tested on: mean blood pressure in rat; assay: Acute intravenous hypotensive activity in anesthetized rats; format: in vivo, rat (male Wistar); conditions: for inhibition in vivo at 0.5 mg/kg / inhibition in vivo at 1.5 mg/kg: Rattus norvegicus, iv, read-out: Decrease in mean blood pressure (% pretest)
Experimental: Male Wistar rats were anesthetized with Pentobarbital (Nembutal, 60 mg/kg i.p.) and heparinized (5 mg/kg i.p.). After tracheotomy the right carotid was cannulated (catheter PE 50); blood pressure was measured with a pressure transducer (Statham P 23 db) and recorded on a polygraph (Beckman).
Animals received 0.5 and 1.5 mg/kg of the test compounds. Less than 100 μl of test compounds dissolved in 0.9% saline were injected in the jugular vein. Highly water insoluble compounds were suspended in 2% Tween-80. Injection of the vehicle alone had no detectable hypotensive effect.
Results presented are expressed as percent decrease in initial mean blood pressure (Mean±SEM).

[5] = tested on: [^3 H]-PN-200 110 (dihydropyridine) binding site of calcium channel, rat brain membranes; assay: [^3 H]-PN-200 110 binding to rat brain membranes; design: species or system rat (male Wistar); conditions: for Specifically bound [^3 H]-PN-200 110 % of control value: compound concentration 1.0 μM; for Specifically bound [^3 H]-PN-200 110 % of control value / Bound ^3 H at 1.0 μM / Bound ^3 H at 0.1 μM: Table 1b; for Bound ^3 H at 1.0 μM / Bound ^3 H at 0.1 μM: ratio of [^3 H]-PN-200 110 bound at 1.0 and 0.1 μM compound; for potency in [^3 H]-PN200 110 binding (in words): text on Table 1b
Experimental: as §1
Water insoluble compounds were dissolved in absolute ethanol to give 10 mM or 2.5 mM stock solutions. Suitable dilutions were made in 50 mM Tris-HCl buffer (pH 7.4) containing 150 mM NaCl and 1 mM CaCl2. The ethanol concentration in the final assay never exceeded 0.1%.
as §2, §3, §4, §5, §6, §7, §8, §9, §10, §11
2. The ratio obtained by dividing the amount of specifically found [^3 H]-Nitrendipine at 1.0 μM compound final concentration by the value obtained at 0.1 μM test compound, was smaller than 0.9 or greater than 1.1. This ratio is indicative of a dose response relationship within the compound concentration range tested, when the value differs appreciably from 1.0.
Note: In some experiments [^3 H]-PN200 110, a new and commercially available specific dihydropyridine was used instead of [^3 H]-Nitrendipine.

[6] = tested on: blood pressure in hypertensive rats; assay: Oral hypotensive activity in hypertensive rats (tail cuff); format: in vivo, rat (spontaneously hypertensive, SHR); conditions: Table 5
Experimental: Some selected compounds were given orally to conscious SHR rats and blood pressure was monitored using the tail cuff method. A marked and sustained hypotensive activity was measured in all treated rats. Results are given 2 hours post dose (Table 5). These studies illustrate the obvious potential use of orally administered 1,3-diphosphonates for the clinical treatment of hypertension in man.

## C(=C\c1ccccc1)/CN1CCN(C(c2ccccc2)c2ccccc2)CC1 [Cinnarizine]
[1]
  effect on [^3 H]-Nitrendipine binding (in words): reduce [^3 H]-Nitrendipine binding affinity

## CCOP(=O)(CC(Cc1ccccc1)CP(=O)(OCC)OCC)OCC [Compound 25, Tetraethyl 2-benzyl-1,3-propylidenediphosphonate]
[2]
  Specifically bound [^3 H]-Nitrendipine % of control value: 100 % of control value
  Bound ^3 H at 1.0 μM / Bound ^3 H at 0.1 μM: 1.060
[3]
  activity at 1 µM: 53 ± 2.5%
[3]; final concentration 1.0 μM
  activity on KCl-induced trachea contraction (in words): potent pharmacological activity
[4]
  inhibition in vivo at 0.5 mg/kg: 23.2 ± 2.2%
  inhibition in vivo at 1.5 mg/kg: 41.4 ± 1%

## CCOP(=O)(CC(CCCc1ccccc1)CP(=O)(OCC)OCC)OCC [Compound 27]
[2]
  Specifically bound [^3 H]-Nitrendipine % of control value: 95 % of control value
  Bound ^3 H at 1.0 μM / Bound ^3 H at 0.1 μM: 0.982
[4]
  inhibition in vivo at 0.5 mg/kg: 25.6 ± 2.2%
  inhibition in vivo at 1.5 mg/kg: 35 ± 4.7%

## CCOP(=O)(CC(Cc1ccc(Cl)cc1)CP(=O)(OCC)OCC)OCC [Compound 30]
[2]
  Specifically bound [^3 H]-Nitrendipine % of control value: 99 % of control value
  Bound ^3 H at 1.0 μM / Bound ^3 H at 0.1 μM: 1.003
[3]
  activity at 1 µM: 90%
[4]
  inhibition in vivo at 0.5 mg/kg: 17%
  inhibition in vivo at 1.5 mg/kg: 34.4 ± 5.1%

## CCOP(=O)(CC(Cc1cc(OC)c(OC)c(OC)c1)CP(=O)(OCC)OCC)OCC [Compound 36]
[2]
  Specifically bound [^3 H]-Nitrendipine % of control value: 100 % of control value
  Bound ^3 H at 1.0 μM / Bound ^3 H at 0.1 μM: 0.966
[4]
  inhibition in vivo at 0.5 mg/kg: 39.9 ± 1.6%

## CCCCOP(=O)(CC(Cc1cc(OC)c(OC)c(OC)c1)CP(=O)(OCCCC)OCCCC)OCCCC [Compound 82]
[2]
  Specifically bound [^3 H]-Nitrendipine % of control value: 90 % of control value
  Bound ^3 H at 1.0 μM / Bound ^3 H at 0.1 μM: 0.886
[3]
  activity at 1 µM: 80 ± 4%
[4]
  inhibition in vivo at 0.5 mg/kg: 40.1 ± 3.2%
[4]; acute i.v., Table 4
  hypotensive activity (in words): hypotensive activity superior to that of classical hypotensive drugs and of the calcium antagonists used as references

## CCCCOP(=O)(CC(CCOc1ccc(F)cc1)CP(=O)(OCCCC)OCCCC)OCCCC [Compound 89]
[5]
  Specifically bound [^3 H]-PN-200 110 % of control value: 6 % of control value
  Bound ^3 H at 1.0 μM / Bound ^3 H at 0.1 μM: 0.310
  potency in [^3 H]-PN200 110 binding (in words): as potent as Nifedipine
[6]
  oral hypotensive activity (in words): decrease blood pressure as markedly as the marketed calcium antagonists used as references

## CCCCOP(=O)(CC(CCOc1ccc(Cl)cc1)CP(=O)(OCCCC)OCCCC)OCCCC [Compound 90]
[5]
  Specifically bound [^3 H]-PN-200 110 % of control value: 4 % of control value
  Bound ^3 H at 1.0 μM / Bound ^3 H at 0.1 μM: 0.243
  potency in [^3 H]-PN200 110 binding (in words): as potent as Nifedipine
[6]
  oral hypotensive activity (in words): decrease blood pressure as markedly as the marketed calcium antagonists used as references

## CCCCOP(=O)(CC(CCOc1ccc(Br)cc1)CP(=O)(OCCCC)OCCCC)OCCCC [Compound 91]
[5]
  Specifically bound [^3 H]-PN-200 110 % of control value: 15 % of control value
  Bound ^3 H at 1.0 μM / Bound ^3 H at 0.1 μM: 0.420
[6]
  oral hypotensive activity (in words): decrease blood pressure as markedly as the marketed calcium antagonists used as references

## CCCCOP(=O)(CC(CCOc1ccc(OC)cc1)CP(=O)(OCCCC)OCCCC)OCCCC [Compound 92]
[5]
  Specifically bound [^3 H]-PN-200 110 % of control value: 0 % of control value
  Bound ^3 H at 1.0 μM / Bound ^3 H at 0.1 μM: 0.000
  potency in [^3 H]-PN200 110 binding (in words): as potent as Nifedipine
[6]
  oral hypotensive activity (in words): decrease blood pressure as markedly as the marketed calcium antagonists used as references

## COc1ccc(CCN(C)CCCC(C#N)(c2cc(OC)c(OC)c(OC)c2)C(C)C)cc1OC [Compound D-600]
[1]
  effect on [^3 H]-Nitrendipine binding (in words): reduce [^3 H]-Nitrendipine binding affinity

## Fc1ccc(C(c2ccc(F)cc2)N2CCN(C/C=C/c3ccccc3)CC2)cc1 [Flunarizine]
[1]
  effect on [^3 H]-Nitrendipine binding (in words): reduce [^3 H]-Nitrendipine binding affinity

## Cc1cccc(C)c1NC(=O)CN1CCN(CCCC(c2ccc(F)cc2)c2ccc(F)cc2)CC1 [Lidoflazine]
[1]
  effect on [^3 H]-Nitrendipine binding (in words): reduce [^3 H]-Nitrendipine binding affinity

## CC(Cc1ccccc1)NCCC(c1ccccc1)c1ccccc1 (stereo not shown) [Prenylamine, reference compound]
[2]; reference standards at 1 μM
  % [^3 H]-Nitrendipine bound: 57%
[1]
  effect on [^3 H]-Nitrendipine binding (in words): reduce [^3 H]-Nitrendipine binding affinity

## COc1ccc(CCN(C)CCCC2(c3ccc(OC)c(OC)c3)S(=O)(=O)CCCS2(=O)=O)cc1OC [Tiapamil]
[1]
  effect on [^3 H]-Nitrendipine binding (in words): reduce [^3 H]-Nitrendipine binding affinity

## COc1ccc(CCN(C)CCCC(C#N)(c2ccc(OC)c(OC)c2)C(C)C)cc1OC (stereo not shown) [Verapamil]
[1]
  effect on [^3 H]-Nitrendipine binding (in words): inhibitors; also recorded: reduce [^3 H]-Nitrendipine binding affinity
